# According to patent publication US9695155B2, “Herbicidal substituted pyrimidinyloxy benzene compounds” (E. I. DU PONT DE NEMOURS AND COMPANY, priority 2013, dated 2017):
# Tests used:
# wild buckwheat = assay: Test D postemergence; format: in vivo, Polygonum convolvulus; conditions: Fallopia convolvulus, post-emergence, Postemergence, scale 0 to 100 (0 no effect, 100 complete control), read-out: Plant response rating, Buckwheat, Wild
# Outline: (§1)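 In a controlled growth environment, treated and control plants were held 7 to 21 days, then compared visually. Damage was scored 0–100, where 100 means complete control. Sprays contained surfactant in a non-phytotoxic solvent; post-applied plants were at the 1- to 4-leaf stage.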
# [1] = test system: waterhemp_RES2 (ALS & HPPD resistant common waterhemp); assay: Test E postemergence; format: in vivo, Amaranthus rudis; conditions: Amaranthus tuberculatus, post-emergence, read-out: Plant response rating, Waterhemp_RES2
# Outline: (§2)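 Compound in a non-phytotoxic solvent mixture with surfactant was applied preemergence to seeds in silt loam soil, or postemergence to plants 2 to 18 cm tall grown in peat-based potting medium. Plants were kept in a greenhouse for 14 to 21 days, then rated visually against untreated controls on a 0 (no effect) to 100 (complete control) scale.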
# blackgrass = assay: Test D postemergence; format: in vivo, Alopecurus myosuroides; conditions: Alopecurus myosuroides, post-emergence, Postemergence, scale 0 to 100 (0 no effect, 100 complete control), read-out: Plant response rating, Blackgrass
# Outline: as §1
# chickweed = assay: Test D preemergence; format: in vivo, Stellaria media; conditions: Stellaria media, pre-emergence, scale 0-100, read-out: Plant response rating, Chickweed
# Outline: as §1
# field violet = assay: Test D preemergence; format: in vivo, Viola arvensis; conditions: Viola arvensis, pre-emergence, scale 0-100, read-out: Plant response rating, Field Violet
# Outline: as §1
# galium = assay: Test D postemergence; format: in vivo, Galium aparine; conditions: Galium, post-emergence, scale 0 to 100 (0 no effect, 100 complete control), read-out: Plant response rating, Galium
# Outline: as §1
# wild poinsettia = assay: Test E postemergence; format: in vivo, Euphorbia heterophylla; conditions: Euphorbia heterophylla, post-emergence, read-out: Plant response rating, Poinsettia, Wild
# Outline: as §2
# kochia = assay: Test D postemergence; format: in vivo, Kochia scoparia; conditions: Bassia scoparia, post-emergence, scale 0 to 100 (0 no effect, 100 complete control), read-out: Plant response rating, Kochia
# Outline: as §1
# Italian ryegrass [2] = assay: Test E postemergence; format: in vivo, Lolium multiflorum; conditions: Lolium multiflorum, post-emergence, read-out: Plant response rating, Ryegrass, Italian
# Outline: as §2
# deadnettle = assay: Test D preemergence; format: in vivo, Lamium amplexicaule; conditions: Lamium amplexicaule, pre-emergence, scale 0-100, read-out: Plant response rating, Deadnettle
# Outline: as §1
# soybean = assay: Test E postemergence; format: in vivo, Glycine max; conditions: Glycine max, post-emergence
# Outline: as §2
# Italian ryegrass [3] = assay: Test D postemergence; format: in vivo, Lolium multiflorum; conditions: Lolium multiflorum, post-emergence, scale 0 to 100 (0 no effect, 100 complete control), read-out: Plant response rating, Ryegrass, Italian
# Outline: as §1
# speedwell = assay: Test D postemergence; format: in vivo, Veronica persica; conditions: Veronica persica, post-emergence, scale 0 to 100 (0 no effect, 100 complete control), read-out: Plant response rating, Speedwell
# Outline: as §1
# [4] = Postemergence, 31 g ai/ha, scale 0 to 100
# [5] = Postemergence, 62 g ai/ha, scale 0 to 100
# [6] = Postemergence, 125 g ai/ha, scale 0 to 100
# [7] = Postemergence, 250 g ai/ha, scale 0 to 100
# [8] = postemergence, 16 g ai/ha, scale 0 to 100, 0 no effect, 100 complete control
compound,measurement,setting,value
"N#Cc1cccc(Oc2ncc(Br)cn2)c1-n1cc(C(F)(F)F)cn1 [Compound 59, 3-[(5-bromo-2-pyrimidinyl)oxy]-2-[4-(trifluoromethyl)-1H-pyrazol-1-yl]benzonitrile]",pest or weed control at 31 g/ha,wild buckwheat; 31 g ai/ha,80%
same,pest or weed control at 62 g/ha,wild buckwheat; 62 g ai/ha,100%
same,pest or weed control at 125 g/ha,wild buckwheat; 125 g ai/ha,100%
same,pest or weed control at 250 g/ha,wild buckwheat; 250 g ai/ha,100%
same,pest or weed control at 31 g/ha,[1]; [4],85%
same,pest or weed control at 62 g/ha,[1]; [5],90%
same,pest or weed control at 125 g/ha,[1]; [6],95%
same,pest or weed control at 250 g/ha,[1]; [7],100%
same,pest or weed control at 16 g/ha,[1]; [8],75%
same,pest or weed control at 62 g/ha,blackgrass; 62 g ai/ha,30%
same,pest or weed control at 31 g/ha,blackgrass; 31 g ai/ha,25%
same,pest or weed control at 125 g/ha,blackgrass; 125 g ai/ha,40%
same,pest or weed control at 250 g/ha,blackgrass; 250 g ai/ha,70%
same,pest or weed control at 31 g/ha,chickweed; 31 g ai/ha,100%
same,pest or weed control at 62 g/ha,chickweed; 62 g ai/ha,100%
same,pest or weed control at 125 g/ha,chickweed; 125 g ai/ha,100%
same,pest or weed control at 250 g/ha,chickweed; 250 g ai/ha,95%
same,pest or weed control at 31 g/ha,field violet; 31 g ai/ha,65%
same,pest or weed control at 62 g/ha,field violet; 62 g ai/ha,85%
same,pest or weed control at 125 g/ha,field violet; 125 g ai/ha,100%
same,pest or weed control at 250 g/ha,field violet; 250 g ai/ha,100%
same,pest or weed control at 31 g/ha,galium; 31 g ai/ha,75%
same,pest or weed control at 62 g/ha,galium; 62 g ai/ha,80%
same,pest or weed control at 125 g/ha,galium; 125 g ai/ha,95%
same,pest or weed control at 250 g/ha,galium; 250 g ai/ha,95%
same,pest or weed control at 31 g/ha,wild poinsettia; [4],50%
same,pest or weed control at 62 g/ha,wild poinsettia; [5],60%
same,pest or weed control at 125 g/ha,wild poinsettia; [6],65%
same,pest or weed control at 250 g/ha,wild poinsettia; [7],80%
same,pest or weed control at 16 g/ha,wild poinsettia; [8],50%
same,pest or weed control at 31 g/ha,kochia; 31 g ai/ha,95%
same,pest or weed control at 62 g/ha,kochia; 62 g ai/ha,95%
same,pest or weed control at 125 g/ha,kochia; 125 g ai/ha,95%
same,pest or weed control at 250 g/ha,kochia; 250 g ai/ha,95%
same,pest or weed control at 31 g/ha,Italian ryegrass [2]; [4],0%
same,pest or weed control at 62 g/ha,Italian ryegrass [2]; [5],15%
same,pest or weed control at 125 g/ha,Italian ryegrass [2]; [6],25%
same,pest or weed control at 250 g/ha,Italian ryegrass [2]; [7],60%
same,pest or weed control at 16 g/ha,Italian ryegrass [2]; [8],0%
same,pest or weed control at 31 g/ha,deadnettle; 31 g ai/ha,100%
same,pest or weed control at 62 g/ha,deadnettle; 62 g ai/ha,100%
same,pest or weed control at 125 g/ha,deadnettle; 125 g ai/ha,100%
same,pest or weed control at 250 g/ha,deadnettle; 250 g ai/ha,100%
same,"plant response (crop injury) rating, soybean, 0-100 scale at 31 g/ha",soybean; [4],65%
same,"plant response (crop injury) rating, soybean, 0-100 scale at 62 g/ha",soybean; [5],95%
same,"plant response (crop injury) rating, soybean, 0-100 scale at 125 g/ha",soybean; [6],95%
same,"plant response (crop injury) rating, soybean, 0-100 scale at 250 g/ha",soybean; [7],98%
same,"plant response (crop injury) rating, soybean, 0-100 scale at 16 g/ha",soybean; [8],60%
same,pest or weed control at 31 g/ha,Italian ryegrass [3]; 31 g ai/ha,10%
same,pest or weed control at 62 g/ha,Italian ryegrass [3]; 62 g ai/ha,10%
same,pest or weed control at 125 g/ha,Italian ryegrass [3]; 125 g ai/ha,40%
same,pest or weed control at 250 g/ha,Italian ryegrass [3]; 250 g ai/ha,50%
same,pest or weed control at 31 g/ha,speedwell; 31 g ai/ha,100%
same,pest or weed control at 62 g/ha,speedwell; 62 g ai/ha,75%
same,pest or weed control at 125 g/ha,speedwell; 125 g ai/ha,100%
same,pest or weed control at 250 g/ha,speedwell; 250 g ai/ha,100%
